Assay results published in ChEMBL document CHEMBL1154964, “Acidic elements in histamine H(3) receptor antagonists” (Bioorg Med Chem Lett, 2010).

Key:
Histamine H3 receptor = Histamine H3 receptor (Homo sapiens, UniProt Q9Y5N1); assay: Displacement of [125I]Iodoproxyfan from human histamine H3 receptor expressed in HEK293 cells after 60 mins by scintillation counting; type: cell-based
[1] = target: T1, Peroxisome proliferator-activated receptor alpha (Homo sapiens, UniProt Q07869); assay: Agonist activity at human recombinant PPARalpha LBD expressed in african green monkey COS7 cells coexpressing GAL4 by luciferase reporter gene transactivation assay; type: functional, cell-based, COS-7
T1 sequence (Q07869 whole entry): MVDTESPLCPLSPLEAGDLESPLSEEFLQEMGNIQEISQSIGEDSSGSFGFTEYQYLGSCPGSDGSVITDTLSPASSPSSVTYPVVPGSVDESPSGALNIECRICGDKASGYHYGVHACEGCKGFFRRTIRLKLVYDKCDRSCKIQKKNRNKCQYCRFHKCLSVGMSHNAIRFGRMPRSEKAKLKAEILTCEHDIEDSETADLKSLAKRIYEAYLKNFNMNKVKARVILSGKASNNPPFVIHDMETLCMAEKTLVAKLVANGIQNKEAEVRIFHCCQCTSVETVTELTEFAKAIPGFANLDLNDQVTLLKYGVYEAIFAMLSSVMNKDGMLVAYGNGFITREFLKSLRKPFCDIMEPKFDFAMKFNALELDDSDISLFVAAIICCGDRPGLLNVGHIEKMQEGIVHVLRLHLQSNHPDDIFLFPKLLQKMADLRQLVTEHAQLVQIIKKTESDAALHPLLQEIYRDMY

Chain of Histamine H3 receptor (Q9Y5N1 whole entry, the tested form may be a part): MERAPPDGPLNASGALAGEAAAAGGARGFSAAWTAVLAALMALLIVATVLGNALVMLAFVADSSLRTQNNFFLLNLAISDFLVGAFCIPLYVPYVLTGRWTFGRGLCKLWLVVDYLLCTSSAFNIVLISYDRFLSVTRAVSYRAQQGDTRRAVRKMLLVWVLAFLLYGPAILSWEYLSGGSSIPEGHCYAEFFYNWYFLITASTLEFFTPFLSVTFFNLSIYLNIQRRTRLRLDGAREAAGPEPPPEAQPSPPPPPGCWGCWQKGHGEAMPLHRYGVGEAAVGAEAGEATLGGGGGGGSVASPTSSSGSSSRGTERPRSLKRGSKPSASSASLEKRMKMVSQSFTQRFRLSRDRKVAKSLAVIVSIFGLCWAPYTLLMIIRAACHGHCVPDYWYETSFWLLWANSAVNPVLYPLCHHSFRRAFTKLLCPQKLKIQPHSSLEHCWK

For `O=C(O)C1CSC(c2ccc(OCCCN3CCCCC3)cc2)N1` (centres undefined), the Ki (Histamine H3 receptor) was 10 nM.

In the case of `O=C1NC(=O)/C(=C/c2ccc(OCCCN3CCCCC3)cc2)S1`, the Ki (Histamine H3 receptor) is reported as 7.94 nM.

`c1cc(C2=NCCN2)ccc1OCCCN1CCCCC1` showed a Ki (Histamine H3 receptor) of 7.94 nM.

Work on `O=C1NC(=O)C(Cc2ccc(OCCCN3CCCCC3)cc2)S1` (centres undefined) yielded a Ki (Histamine H3 receptor) of 50.1 nM.

`COC(=O)C1CSC(c2ccc(OCCCN3CCCCC3)cc2)N1` (centres undefined) showed a Ki (Histamine H3 receptor) of 3.98 nM.

`O=C(O)c1cn(C2CC2)c2cc(N3CCN(Cc4ccc(OCCCN5CCCCC5)cc4)CC3)c(F)cc2c1=O` was tested, and the Ki (Histamine H3 receptor) was 2 nM.

`CN(CCC=C1c2ccccc2CCc2ccccc21)Cc1ccc(OCCCN2CCCCC2)cc1` was tested, and the Ki (Histamine H3 receptor) was 0.316 nM.

Compound `O=C1NC(=S)S/C1=C\c1ccc(OCCCN2CCCCC2)cc1` has an EC50 [1] of over 10000 nM and a Ki (Histamine H3 receptor) of 5.01 nM.
